Assay results taken from ChEMBL document CHEMBL1150571, “Hipposulfates A and B, new sesterterpene sulfates from an Okinawan sponge, Hippospongia cf. metachromia” (J Nat Prod, 2001).

Columns and labels:
Type in all cases: functional, cell-based
[1] = system: A549; assay: Cytotoxicity against human A549 cells
[2] = system: HT-29; assay: Cytotoxicity against human HT-29 cells
[3] = system: P388; assay: Cytotoxicity against mouse P388 cells
[4] = system: SK-MEL-28; assay: Cytotoxicity against human SK-MEL-28 cells

Measured: IC50

CC1=CC[C@H]2C(C)(C)CCC[C@]2(C)[C@H]1CC/C(=C\OS(=O)(=O)[O-])CCC/C(C)=C/Cc1cc(O)ccc1O.[Na+] [HIPPOSULFATE A]
2 µg/mL: all assays above
